Drawing on US10618916B2, “Heterocyclic compounds as immunomodulators” (Incyte Corporation, priority 2018, dated 2020), this text covers IC50 and EC50 for ten molecules.

pEC50, pIC50: −log10 of the molar value.

Assay [1] concerns U2OS/PD-L1 cells and Jurkat-PD-1-SHP cells. In words: Src homology region 2 domain-containing phosphatase (SHP) assay. Type of assay: cell-based. The following applies: Homo sapiens, U2OS. Summed up:
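U2OS/PD-L1 and Jurkat-PD-1-SHP cells (5000 each per well) were co-incubated with compound for 2 h at 37 °C in RPMI1640 with 1% FBS, 0.05% DMSO final. PathHunter chemiluminescence was read after 1 h at room temperature, and IC50 was fitted from percent of DMSO-control activity.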

For assay [2], the target named is PD-1/PD-L1 protein/protein interaction (recombinant human PD-L1 and human PD-1) (Homo sapiens (Human), UniProt Q9NZQ7). In words: Homogeneous Time-Resolved Fluorescence (HTRF) PD-1/PD-L1 binding assay. A digest of the protocol:
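Human PD-L1 (19-238, C-His; 10 nM final) and PD-1 (25-167, C-Fc; 3 nM final) preincubated 40 min with inhibitor in PBS pH 7.4, 0.05% Tween-20, 0.1% BSA, 1% DMSO, 25 °C. Eu-anti-human IgG (1 nM) and anti-His-APC (20 nM) added for 60 min; 665/620 nm ratio; IC50 from percent-control curves.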
On the technique in general: Time-resolved FRET reads energy transfer from a long-lived donor to a nearby acceptor.

For assay [3], the system named is PD-L1 aAPC/CHO-K1 cells and Jurkat-PD-1-NFAT effector cells. Briefly: Nuclear factor of activated T-cells (NFAT) assay. Type of assay: cell-based. Conditions: Cricetulus griseus, CHO-K1. A digest of the protocol:
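CHO-K1 cells expressing PD-L1 aAPC were co-cultured with Jurkat-PD-1-NFAT effector cells in RPMI 1640 with 1% FBS and compound (0.4% DMSO; top concentration 2 μM) for 24 h at 37 °C. Bio-Glo luminescence was read, fold induction normalised to DMSO wells, and EC50 fitted from percent of control compound activity.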

For a further assay, the target named is PD-L1 (Homo sapiens (Human), UniProt Q9NZQ7). In words: PD-L1 whole blood internalization assay. Type of assay: cell-based. The following applies: 24 HR, PD-L1 expression on CD14+ cells, human interferon γ. The method, then:
Example D. PD-L1 Whole Blood Internalization Assay
To determine PD-L1 internalization in human whole blood, normal human blood (Biological Specialty Corp, Colmar. Pa.) was incubated in the presence or absence of a concentration range of test compounds and 1 ng/ml human interferon γ (R&D Systems Inc. Minn. […] Blood was then stained with PD-L1 (MIH1, eBioscience; or BD Biosciences San Jose, Calif.), CD14 (Life Technologies, Carlsbad, Calif.) for 30 minutes in the dark at room temperature. Whole Blood/red cells were lysed/fixed (lysis buffer BD Biosciences) for 5 minutes at 37° C. in the dark and then centrifuged at 1600 RPM for 5 minutes. Cells were resuspended in Stain Buffer (BD Bioscience, San Jose, Calif.) and transferred into 96 well round bottom plates (Corning). Cells were gated on CD14+(BD Biosciences) and PD-L1 expression determined by mean fluorescence intensity (MFI) (BD LSRFortessa™ X-20). IC50 determination was performed by fitting the curve of compound percent inhibition versus the log of the compound concentration using the GraphPad Prism 7.0 software.

Chain of PD-L1 (Q9NZQ7 19-290): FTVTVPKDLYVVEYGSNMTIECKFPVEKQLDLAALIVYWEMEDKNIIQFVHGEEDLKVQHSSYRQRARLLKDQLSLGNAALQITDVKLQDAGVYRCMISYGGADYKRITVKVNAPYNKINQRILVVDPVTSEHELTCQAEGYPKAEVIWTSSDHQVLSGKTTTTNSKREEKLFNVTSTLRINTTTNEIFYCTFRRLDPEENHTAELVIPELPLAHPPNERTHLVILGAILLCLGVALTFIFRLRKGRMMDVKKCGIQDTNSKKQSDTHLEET
Chain of PD-1/PD-L1 protein/protein interaction (recombinant human PD-L1 and human PD-1) (Q9NZQ7 19-238): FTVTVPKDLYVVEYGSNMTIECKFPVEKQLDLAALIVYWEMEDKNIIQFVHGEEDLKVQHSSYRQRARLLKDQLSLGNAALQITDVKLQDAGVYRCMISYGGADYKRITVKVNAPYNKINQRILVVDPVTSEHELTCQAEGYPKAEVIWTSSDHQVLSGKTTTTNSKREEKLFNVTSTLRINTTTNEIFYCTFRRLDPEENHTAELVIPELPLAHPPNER

In the case of `Cn1c(C(=O)Nc2cccc(-c3cccc(NC(=O)c4nc5c(n4C)CCN(CCC46CCC(C(=O)O)(CC4)C6)C5)c3Cl)c2Cl)nc2c1CCN(CCO)C2` [Example 15, 4-(2-(2-((2,2′-dichloro-3′-(5-(2-hydroxyethyl)-1-methyl-4,5,6,7-tetrahydro-1H-imidazo[4,5-c]pyridine-2-carboxamido)-[1,1′-biphenyl]-3-yl)carbamoyl)-1-methyl-1,4,6,7-tetrahydro-5H-imidazo[4,5-c]pyridin-5-yl)ethyl)bicyclo[2.2.1]heptane-1-carboxylic acid], the results for the pIC50 (in assay [1]; in assay [2]; against PD-L1) were at least 8.00, at least 8.30 and 7.00 to 8.00, respectively. Moreover, in assay [3], the pEC50 (commonly the EC50 on a negative log10 scale, so that one unit is a factor of ten) is 7.00 to 8.00.
Regarding `Cn1c(C(=O)Nc2cccc(-c3cccc(NC(=O)c4nc5c(n4C)CCN(CCC46CCC(C(=O)O)(CC4)C6)C5)c3Cl)c2Cl)nc2c1CCN(CCCO)C2` [Example 16, 4-(2-(2-((2,2′-dichloro-3′-(5-(3-hydroxypropyl)-1-methyl-4,5,6,7-tetrahydro-1H-imidazo[4,5-c]pyridine-2-carboxamido)-[1,1′-biphenyl]-3-yl)carbamoyl)-1-methyl-1,4,6,7-tetrahydro-5H-imidazo[4,5-c]pyridin-5-yl)ethyl)bicyclo[2.2.l]-heptane-1-carboxylic acid], the values for the pIC50 (in assay [1]; in assay [2]; at PD-L1) were at least 8.00, at least 8.30 and 7.00 to 8.00, respectively. In assay [3], this molecule had a pEC50 of at least 8.00.
In the case of `Cn1c(C(=O)Nc2cccc(-c3cccc(NC(=O)c4nc5c(n4C)CCN(CCC46CCC(C(=O)O)(CC4)C6)C5)c3Cl)c2Cl)nc2c1CCN(CCC13CCC(C(=O)O)(CC1)C3)C2` [Example 17, 4,4′-(((((2,2′-dichloro-[1,1′-biphenyl]-3,3′-diyl)bis(azanediyl))bis(carbonyl))bis(1-methyl-1,4,6,7-tetrahydro-5H-imidazo[4,5-c]pyridine-2,5-diyl))bis(ethane-2,1-diyl))bis(bicyclo[2.2.1]heptane-1-carboxylic acid)], the pIC50 – broadly, the negative decadic logarithm of the IC50, by convention in mol/L – was at least 8.00 in assay [1], at least 8.30 in assay [2] and 7.00 to 8.00 at PD-L1. The molecule also showed a pEC50 in assay [3] of 7.00 to 8.00.
In the case of `Cn1c(C(=O)Nc2cccc(-c3cccc(NC(=O)c4nc5c(n4C)CCN(CC46CCC(C(=O)O)(CC4)C6)C5)c3Cl)c2Cl)nc2c1CCN(CCC13CCC(C(=O)O)(CC1)C3)C2` [Example 18, 4-((2-((3′-(5-(2-(4-carboxybicyclo[2.2.1]heptan-1-yl)ethyl)-1-methyl-4,5,6,7-tetrahydro-1H-imidazo[4,5-c]pyridine-2-carboxamido)-2,2′-dichloro-[1,1′-biphenyl]-3-yl)carbamoyl)-1-methyl-1,4,6,7-tetrahydro-5H-imidazo[4,5-c]pyridin-5-yl)methyl)bicyclo[2.2.1]heptane-1-carboxylic acid], the figures for the pIC50 (in assay [1]; in assay [2]; at PD-L1) were at least 8.00, at least 8.30 and 7.00 to 8.00, respectively. The pEC50 in assay [3] is 7.00 to 8.00.
With `Cn1c(C(=O)Nc2cccc(-c3cccc(NC(=O)c4nc5c(n4C)CCN(CC(=O)O)C5)c3Cl)c2Cl)nc2c1CCN(CCC13CCC(C(=O)O)(CC1)C3)C2` [Example 19, 4-(2-(2-((3′-(5-(carboxymethyl)-1-methyl-4,5,6,7-tetrahydro-1H-imidazo[4,5-c]pyridine-2-carboxamido)-2,2′-dichloro-[1,1′-biphenyl]-3-yl)carbamoyl)-1-methyl-1,4,6,7-tetrahydro-5H-imidazo[4,5-c]pyridin-5-yl)ethyl)bicyclo[2.2.1]heptane-1-carboxylic acid], the pIC50 in assay [1] is at least 8.00; in assay [2], at least 8.30; on PD-L1, 7.00 to 8.00. Moreover, the pEC50 in assay [3] is 7.00 to 8.00.
With `Cn1c(C(=O)Nc2cccc(-c3cccc(NC(=O)c4nc5c(n4C)CCN(CCC46CCC(C(=O)O)(CC4)C6)C5)c3Cl)c2Cl)nc2c1CCN(CCCC(=O)O)C2` [Example 20, 4-(2-(2-((3′-(5-(3-carboxypropyl)-1-methyl-4,5,6,7-tetrahydro-1H-imidazo[4,5-c]pyridine-2-carboxamido)-2,2′-dichloro-[1,1′-biphenyl]-3-yl)carbamoyl)-1-methyl-1,4,6,7-tetrahydro-5H-imidazo[4,5-c]pyridin-5-yl)ethyl)bicyclo[2.2.1]heptane-1-carboxylic acid], the pIC50 was at least 8.00 in assay [1], at least 8.30 in assay [2] and 7.00 to 8.00 against PD-L1. Also, in assay [3], the pEC50 is 7.00 to 8.00.
`Cn1c(C(=O)Nc2cccc(-c3cccc(NC(=O)c4nc5c(n4C)CCN(CC(C)(C)C(=O)O)C5)c3Cl)c2Cl)nc2c1CCN(CCC13CCC(C(=O)O)(CC1)C3)C2` [Example 21, 4-(2-(2-((3′-(5-(2-carboxy-2-methylpropyl)-1-methyl-4,5,6,7-tetrahydro-1H-imidazo[4,5-c]pyridine-2-carboxamido)-2,2′-dichloro-[1,1′-biphenyl]-3-yl)carbamoyl)-1-methyl-1,4,6,7-tetrahydro-5H-imidazo[4,5-c]pyridin-5-yl)ethyl)bicyclo[2.2.1]heptane-1-carboxylic acid]: the pIC50 is at least 8.00 in assay [1], at least 8.30 in assay [2] and 7.00 to 8.00 at PD-L1. This molecule had a pEC50 in assay [3] of 7.00 to 8.00.
Regarding `Cn1c(C(=O)Nc2cccc(-c3cccc(NC(=O)c4nc5c(n4C)CCN(CC4(C(=O)O)CC4)C5)c3Cl)c2Cl)nc2c1CCN(CCC13CCC(C(=O)O)(CC1)C3)C2` [Example 22, 4-(2-(2-((3′-(5-((1-carboxycyclopropyl)methyl)-1-methyl-4,5,6,7-tetrahydro-1H-imidazo[4,5-c]pyridine-2-carboxamido)-2,2′-dichloro-[1,1′-biphenyl]-3-yl)carbamoyl)-1-methyl-1,4,6,7-tetrahydro-5H-imidazo[4,5-c]pyridin-5-yl)ethyl)bicyclo[2.2.1]heptane-1-carboxylic acid], the results for the pIC50 (in assay [1]; in assay [2]; against PD-L1) were at least 8.00, at least 8.30 and 7.00 to 8.00, respectively. In assay [3], this molecule had a pEC50 of 7.00 to 8.00.
In the case of `Cn1c(C(=O)Nc2cccc(-c3cccc(NC(=O)c4nc5c(n4C)CCN(CC46CCC(C(=O)O)(CC4)CC6)C5)c3Cl)c2Cl)nc2c1CCN(CCC13CCC(C(=O)O)(CC1)C3)C2` [Example 23, 4-((2-((3′-(5-(2-(4-carboxybicyclo[2.2.1]heptan-1-yl)ethyl)-1-methyl-4,5,6,7-tetrahydro-1H-imidazo[4,5-c]pyridine-2-carboxamido)-2,2′-dichloro-[1,1′-biphenyl]-3-yl)carbamoyl)-1-methyl-1,4,6,7-tetrahydro-5H-imidazo[4,5-c]pyridin-5-yl)methyl)bicyclo[2.2.2]octane-1-carboxylic acid], the pIC50 in assay [1] was at least 8.00; in assay [2], at least 8.30; on PD-L1 it was 6.30 to 7.00. In assay [3], this molecule gave a pEC50 of 7.00 to 8.00.
Regarding `Cn1c(C(=O)Nc2cccc(-c3cccc(NC(=O)c4nc5c(n4C)CCN(CC46CC(C(=O)O)(C4)C6)C5)c3Cl)c2Cl)nc2c1CCN(CCC13CCC(C(=O)O)(CC1)C3)C2` [Example 24, 3-((2-((3′-(5-(2-(4-carboxybicyclo[2.2.1]heptan-1-yl)ethyl)-1-methyl-4,5,6,7-tetrahydro-1H-imidazo[4,5-c]pyridine-2-carboxamido)-2,2′-dichloro-[1,1′-biphenyl]-3-yl)carbamoyl)-1-methyl-1,4,6,7-tetrahydro-5H-imidazo[4,5-c]pyridin-5-yl)methyl)bicyclo[1.1.1]-pentane-1-carboxylic acid], the pIC50 was at least 8.00 in assay [1], at least 8.30 in assay [2] and 7.00 to 8.00 on PD-L1. The same molecule had a pEC50 in assay [3] of 7.00 to 8.00.
